Laboratory results reported in ChEMBL document CHEMBL2074101, “Cloning and characterization of a rat H+/peptide cotransporter mediating absorption of beta-lactam antibiotics in the intestine and kidney” (J Pharmacol Exp Ther, 1995).

Assays:
Type in all cases: functional, cell-based
Conditions in all cases: Oocyte
[1] = target: T1, Solute carrier family 15 member 1 (Rattus norvegicus) (UniProt P51574); assay: TP_TRANSPORTER: inhibition of Cephradine uptake (Cephradine: 3000 uM, Bestatin: 10000 uM) in Xenopus laevis oocytes
T1 sequence (whole entry): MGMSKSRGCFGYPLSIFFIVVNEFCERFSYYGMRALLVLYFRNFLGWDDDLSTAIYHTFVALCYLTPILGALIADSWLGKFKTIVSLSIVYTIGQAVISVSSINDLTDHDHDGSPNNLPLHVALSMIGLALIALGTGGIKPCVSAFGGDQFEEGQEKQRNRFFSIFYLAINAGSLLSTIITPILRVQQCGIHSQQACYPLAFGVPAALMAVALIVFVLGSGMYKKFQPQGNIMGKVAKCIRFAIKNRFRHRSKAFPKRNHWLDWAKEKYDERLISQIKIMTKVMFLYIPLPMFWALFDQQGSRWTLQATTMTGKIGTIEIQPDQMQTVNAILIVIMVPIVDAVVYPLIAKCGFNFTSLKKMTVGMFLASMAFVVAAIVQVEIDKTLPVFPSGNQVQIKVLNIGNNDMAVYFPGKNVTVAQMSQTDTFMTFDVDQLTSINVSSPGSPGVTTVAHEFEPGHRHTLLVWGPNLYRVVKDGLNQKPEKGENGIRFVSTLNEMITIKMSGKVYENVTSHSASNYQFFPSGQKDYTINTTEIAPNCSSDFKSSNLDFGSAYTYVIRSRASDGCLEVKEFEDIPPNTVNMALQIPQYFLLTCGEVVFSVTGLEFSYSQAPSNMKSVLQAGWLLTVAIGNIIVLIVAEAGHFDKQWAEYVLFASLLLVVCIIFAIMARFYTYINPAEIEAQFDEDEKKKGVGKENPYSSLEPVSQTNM

[2] = target: T1, Solute carrier family 15 member 1 (Rattus norvegicus); assay: TP_TRANSPORTER: inhibition of Ceftibuten uptake (Ceftibuten: 1000 uM, Bestatin: 10000 uM) in Xenopus laevis oocytes
[3] = target: T1, Solute carrier family 15 member 1 (Rattus norvegicus); assay: TP_TRANSPORTER: inhibition of Cephradine uptake (Cephradine: 3000 uM, Ceftibuten: 10000 uM) in Xenopus laevis oocytes
[4] = target: T1, Solute carrier family 15 member 1 (Rattus norvegicus); assay: TP_TRANSPORTER: inhibition of Ceftibuten uptake (Ceftibuten: 1000 uM, Cephradine: 10000 uM) in Xenopus laevis oocytes
[5] = target: T1, Solute carrier family 15 member 1 (Rattus norvegicus); assay: TP_TRANSPORTER: inhibition of Cephradine uptake (Cephradine: 3000 uM, Carnosine: 10000 uM) in Xenopus laevis oocytes
[6] = target: T1, Solute carrier family 15 member 1 (Rattus norvegicus); assay: TP_TRANSPORTER: inhibition of Ceftibuten uptake (Ceftibuten: 1000 uM, Carnosine: 10000 uM) in Xenopus laevis oocytes
[7] = target: T1, Solute carrier family 15 member 1 (Rattus norvegicus); assay: TP_TRANSPORTER: inhibition of Ceftibuten uptake (Ceftibuten: 1000 uM, Gly-Leu: 10000 uM) in Xenopus laevis oocytes
[8] = target: T1, Solute carrier family 15 member 1 (Rattus norvegicus); assay: TP_TRANSPORTER: inhibition of Cephradine uptake (Cephradine: 3000 uM, Gly-Leu: 10000 uM) in Xenopus laevis oocytes
[9] = substrate: Nc1nc(/C(=C/CC(=O)O)C(=O)N[C@@H]2C(=O)N3C(C(=O)O)=CCS[C@H]23)cs1; assay: (§1) TP_TRANSPORTER: uptake in Xenopus laevis oocytes
[10] = substrate: CC1=C(C(=O)O)N2C(=O)[C@@H](NC(=O)[C@H](N)C3=CCC=CC3)[C@H]2SC1; assay: as §1

For CC(C)C[C@H](NC(=O)[C@@H](O)[C@H](N)Cc1ccccc1)C(=O)O, the Activity [1] was “inhibitor [+]” and the Activity [2] was “inhibitor [+]”.

With Nc1nc(/C(=C/CC(=O)O)C(=O)N[C@@H]2C(=O)N3C(C(=O)O)=CCS[C@H]23)cs1 the Activity [3] was “inhibitor [+]”.

For CC1=C(C(=O)O)N2C(=O)[C@@H](NC(=O)[C@H](N)C3=CCC=CC3)[C@H]2SC1, the Activity [4] was “is not an inhibitor [-]”.

For NCCC(=O)N[C@@H](Cc1c[nH]cn1)C(=O)O, the Activity [5] was “inhibitor [+]” and the Activity [6] was “inhibitor [+]”.

In the case of CC(C)C[C@H](NC(=O)CN)C(=O)O, the Activity [7] is reported as “inhibitor [+]” and the Activity [8] is reported as “inhibitor [+]”.

B1: Solute carrier family 15 member 1 (Rattus norvegicus), P51574 (protein)
chain: T1 sequence (whole entry)
In the case of B1, the Km [9] is reported as 900 µM and the Km [10] is reported as 12.4 mM.
